Measurements from article PMC4961418, “A Selective Irreversible Inhibitor of Furin Does Not Prevent Pseudomonas Aeruginosa Exotoxin A-Induced Airway Epithelial Cytotoxicity” (PLoS ONE, 2016).
Side chains are listed from the residue outwards. Peptide text beside a SMILES is read from it. * marks the point of attachment. Biotin = O=C1N[C@H]2[C@H](CS[C@H]2CCCCC(=O)*)N1; X1 = N=C(N)NCCCC(N*)P(=O)(Oc1ccccc1)Oc1ccccc1; Palmitoyl = CCCCCCCCCCCCCCCC(=O)*; Ahx = NCCCCCC(=O)O

Key:
[1] = target: T1, factor Xa (Homo sapiens, UniProt P00742); assay: Fluorogenic protease activity assay, factor Xa; assay type: biochemical; settings: 10 μM inhibitor, Boc-Ile-Glu-Gly-Arg-NH2Mec 50 μM, N = 3
T1 construct: factor Xa and neutrophil elastase (Merck Millipore); purchased Merck Millipore
Source text: (§1) Recombinant human enzymes were sourced as follows: furin and matriptase (R&D Systems); prostasin (Sino Biological); trypsin and chymotrypsin (Sigma-Aldrich); factor Xa and neutrophil elastase (Merck Millipore) and proteinase-3 and cathepsin G (Elastin Products, Missouri). Fluorogenic substrates were sourced as follows: p-Glu-Arg-Thr-Lys-Arg-NH2Mec and Boc-Gln-Ala-Arg-NH2Mec (R&D Systems); Boc-Ile-Glu-Gly-Arg-NH2Mec (Bachem); Z-Gly-Gly-Arg-NH2Mec, MeOSuc-Ala-Ala-Pro-Val-NH2Mec and Suc-Ala-Ala-Pro-Phe-NH2Mec (Sigma-Aldrich). All chemicals and reagents for the synthesis of QUB-F1 were supplied by Sigma-Aldrich unless otherwise indicated. Fmoc-Lys(Boc)-SASRIN resin was sourced from Bachem. Fmoc-protected amino acids and HCTU were supplied by Merck Millipore.
(§2) Recombinant protease activities were assessed using the cognate fluorogenic substrates (final concentration 50 μM) as follows: trypsin (Z-Gly-Gly-Arg-NH2Mec), prostasin and matriptase (Boc-Gln-Ala-Arg-NH2Mec), factor Xa (Boc-Ile-Glu-Gly-Arg-NH2Mec), neutrophil elastase and proteinase 3 (MeO-Suc-Ala-Ala-Pro-Val-NH2Mec), chymotrypsin and cathepsin G (Suc-Ala-Ala-Pro-Phe-NH2Mec). The rate of substrate hydrolysis in the presence or absence of furin inhibitors was assessed by continuous recording at λex 360 nm, λem 480 nm, over a period of 60 minutes using a FLUOstar Optima microplate reader (BMG Labtech). […]

[2] = target: T2, neutrophil elastase (Homo sapiens, UniProt P08246); assay: Fluorogenic protease activity assay, neutrophil elastase; assay type: biochemical; settings: 10 μM inhibitor, MeO-Suc-Ala-Ala-Pro-Val-NH2Mec 50 μM, N = 3
T2 construct: purchased Merck Millipore
T2 sequence (P08246 30-267): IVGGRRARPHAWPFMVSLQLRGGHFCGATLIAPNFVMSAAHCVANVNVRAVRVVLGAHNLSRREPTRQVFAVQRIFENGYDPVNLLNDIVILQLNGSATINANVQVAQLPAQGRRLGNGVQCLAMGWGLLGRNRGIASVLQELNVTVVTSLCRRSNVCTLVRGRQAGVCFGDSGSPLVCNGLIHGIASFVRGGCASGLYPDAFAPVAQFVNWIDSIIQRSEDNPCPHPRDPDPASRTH
Source text: as §1, §2

[3] = target: cathepsin B (Homo sapiens, UniProt P07858); assay: Cathepsin B activity assay; assay type: biochemical; settings: up to and including a concentration of 10 μM, N = 3
Method: Fig 3 Comparison of QUB-F1 and furin I versus cathepsin B. Cathepsin B activity was assessed in the presence or absence of various concentrations of QUB-F1 or furin I (N = 3). Data represent mean ± s.e.m.

[4] = test system: cell surface furin-like activity (CuFi-1 epithelial cells); assay: Epithelial cell surface furin-like activity assay; assay type: cell-based, human; settings: 10 μM inhibitor, pERTKR substrate 50 μM applied to cell cultures
Method: The CuFi-1 cell line was derived from human airway epithelium of a CF patient (F508del/F508del) transformed with a reverse transcriptase component of telomerase, hTERT and human papillomavirus type 16 E6 and E7 genes. Cells were grown as submerged cultures using bronchial epithelial growth medium (BEBM including a supplement pack) containing: epidermal growth factor, hydrocortisone, bovine pituitary extract, transferrin, bovine insulin, triiodothyronine, epinephrine, retinoic acid, penicillin-streptomycin (0.025 μg/ml), gentamycin ([…]) and amphotericin (25 μg/ml).
Cell culture media was removed from CuFi-1 epithelial cells grown in 96 well microtitre plates (Thermo Scientific Sterilin; clear bottom, black walled) and replaced with PBS /+ inhibitor compounds (furin I or QUB-F1). The furin fluorogenic substrate (pERTKR -NH2Mec) was then applied directly to the cell cultures to give a final concentration of 50 μM. Cell surface proteolytic activity was measured by monitoring the formation of–NH2Mec at λex 360 nm and λem 480 nm using a 5 mm orbital scan every 60 s over a 1 h period (FLUOstar Optima microplate reader; BMG Labtech).
Fig 4 Effect of furin inhibitors on PEA-induced epithelial cell toxicity. (A) Cell toxicity (%) induced by 2 μg/ml PEA (24 h) was measured in the presence or absence of furin I or QUB-F1. Data represent mean ± s.e.m. *P<0.05. […]

T1 sequence (P00742 235-488 limits assumed): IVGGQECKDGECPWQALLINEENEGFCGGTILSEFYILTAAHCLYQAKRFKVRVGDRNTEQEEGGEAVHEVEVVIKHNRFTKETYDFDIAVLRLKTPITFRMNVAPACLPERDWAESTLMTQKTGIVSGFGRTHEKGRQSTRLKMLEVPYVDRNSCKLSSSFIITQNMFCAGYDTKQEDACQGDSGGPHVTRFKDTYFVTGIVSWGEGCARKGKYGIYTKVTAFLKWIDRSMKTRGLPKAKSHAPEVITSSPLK
T1 sequence (P00742 41-179 partner limits assumed): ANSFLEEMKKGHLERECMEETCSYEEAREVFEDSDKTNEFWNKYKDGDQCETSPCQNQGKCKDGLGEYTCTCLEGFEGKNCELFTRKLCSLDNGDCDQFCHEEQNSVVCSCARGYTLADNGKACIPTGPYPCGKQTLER

CCCCCCCCCCCCCCCC(=O)N[C@@H](CCCCNC(=O)CCCCCNC(=O)CCCC[C@@H]1SC[C@@H]2NC(=O)N[C@@H]21)C(=O)N[C@@H](CCCNC(=N)N)C(=O)N[C@H](C(=O)N[C@@H](CCCCN)C(=O)NC(CCCNC(=N)N)P(=O)(Oc1ccccc1)Oc1ccccc1)C(C)C (stereo partly drawn) [QUB-F1, N^α-Pal-N^ω-(Biotinyl-Ahx)-Lys-RVKR^P(OPh)2] (Palmitoyl-K([Ahx-Biotin])RVK-X1)
inhibition of factor Xa [1]: did not | inhibition of neutrophil elastase [2]: Neither compound was found to inhibit | inhibitory action on cathepsin B [3]: no inhibitory action | inhibition of cell surface furin-like activity [4]: inhibited cell surface furin-like activity to the same extent as furin I
